Results as given in US8802161B2, “Herbal composition and method of use for the treatment of cancer” (Florida Agricultural and Mechanical University, priority 2003, dated 2014).
Where two headings read alike, the source gives them in different places.

Tests used:
[1] = tested on: mitochondrial complex's I and IV; assay: Vmax and Km of mitochondrial complexes I and IV; type: biochemical
complex IV = assay: mitochondrial respiration / O2 utilization through complex IV in cancer cells; type: cell-based
mitochondrial complex II = assay: kinetic activity of mitochondrial complex II in cancer cells; type: biochemical
cancer cells = assay: lethality to cancer cells; type: cell-based
N-2A neuroblastoma cells = assay: in vitro screening of >700 nutraceuticals for tumoricidal properties (loss of cell viability, 24 H); type: cell-based; settings: 24 H incubation at 37° C.
Protocol: In brief, we conducted a large scale screening of over 700 commonly sold nutritional supplements for relative tumoricidal properties in vitro.
The data represent loss of cell viability after 24 H incubation at 37° C., and represent the Mean±S.E.M. . . . n=4

LDH Type V = molecular target: T1, LDH Type V (Oryctolagus cuniculus, UniProt P13491); assay: LDH enzyme kinetic activity (NADH oxidation); type: biochemical, rabbit
T1 construct: were determined in pure isolated enzyme preparations; from tissue; host or cells: rabbit muscle
Source text: FIG. 2—The toxicity of selected plant extracts and 2′,3,4′5,7-pentahydroxyflavone were previously determined on N-2A neuroblastoma cells prior to examination of their effects on kinetic activity of pyruvate kinase (PK) and LDH (data not shown). Briefly, the effects of experimental compounds on PK and LDH Type V, resembling that inherent to human cancer (Koukourakis et al., Br J Cancer. 2003; 89:877-85; Augoff and Grabowski. Pol Merkuriusz Lek 2004; 17:644-7; Nagai et al., Int J Cancer. 198815; 10-6; Evans et al., Biol. Chem. 1985; 260:306-14) were determined in pure isolated enzyme preparations. Briefly, PK Type III (from rabbit muscle [2.7.1.40]) was prepared in distilled water+HEPES (pH 7.5), at a concentration of 0.5 enzyme U/ml. Pyruvic acid was converted to lactate in the presence of LDH (from rabbit muscle, type V-S [EC 1.1.1.27]), at a concentration of 10 U/ml in the presence of adenosine, 2′,5′-diphospahte (ADP) (1.5 mM), β-NADH (1 mM)±magnesium sulfate (MgSO4) (5 mM). Experimental compounds were incubated with the enzyme solution for 10 minutes and addition of 1 mM phosphoenolpyruvate (PEP) prepared in distilled water started the reaction. Negative controls were established for all compounds tested. Enzyme activities were determined by spectrophotometric analysis using a UV spectrometer at 340 nm, by monitoring the oxidation of NADH. Experimental compounds that blocked the reaction through the PK/LDH cascade, were re-analyzed for LDH inhibition. LDH activity was achieved using an enzyme reaction mixture, minus PK or PEP, and starting the reaction with pyruvate (1 mM) prepared in buffered distilled water. Validation studies for LDH kinetic activity were established by monitoring the oxidation of NADH over time and concentration with dual detection quantifying lactic acid using a lactate oxidase based colorimetric enzymatic assay (Procedure No 735, Sigma Diagnostics, St. Louis, Mo.). FIG. 2A describes the effect of tumoricidal plant extracts and 2′,3,4′5,7-pentahydroxyflavone on inhibition of PK/LDH activity. The data represent reaction rate of NADH oxidation in the presence of enzyme/cofactor reagents+PEP (1 mM)±varying concentration of experimental compounds at 30 Min. […] Significance of difference from the controls were determined by a one-way ANOVA, followed by a Tukey mean comparison post hoc test, [*] group P<0.001,*P<0.001. FIG. 2B describes the effect of tumoricidal plant-extracts and 2′,3,4′5,7-pentahydroxyflavone on inhibition of LDH activity. The data represent reaction rate of NADH oxidation in the presence of enzyme/cofactor reagents+pyruvate (1 mM)±single level of experimental compound over time. […] Significance of difference from the control was determined by a two-way ANOVA, [*] P<0.001.

[2] = tested on: neuroblastoma and MCF-7 cell line; assay: toxicity of 3-BP versus 2,3-DMBQ: growth inhibition of MCF-7 cells and cell viability of N2A cells; type: cell-based; settings: 24 hour incubation (FIGS. 3A,B)
Protocol: Briefly, cells were grown in Eagles MEM medium with […] and 10% calf serum and plated at 5′ 104 cells in 24 well plates. Appropriate positive (tamoxifen) and negative (no drug) controls were maintained simultaneously. After 24 hour incubation, cells were trypsined and collected by centrifugation, re-suspended in fresh media and cells were counted using trypan blue dye on a hemocytometer. […] FIG. 3B represents the evaluation of 3-BP versus 2,3-DMBQ on cell viability in N2A neuroblastoma cell line. Briefly, the experimental media consisted of DMEM (without phenol red), supplemented with 1.8% FBS (v/v), penicillin (100 U/ml)/streptomycin (0.1 mg/ml), 4 mM L-glutamine and 2 μM sodium pyruvate. Cells were plated at approximately 0.5×10^6 cells/ml in 96 well plates. A stock solution of each experimental compound was prepared in HBSS containing 5 mM HEPES, adjusted to a pH of 7.4. After 24 hours incubation at 37° C. and 5% CO2/atmosphere almar blue indicator dye was used to assess cell viability. Quantitative analysis of dye conversion was measured on a microplate fluorometer—Model 7620-version 5.02, Cambridge Technologies Inc. with settings fixed at [550/580], [excitation/emission], wavelengths. […]

[3] = tested on: MD-MB-231 human mammary carcinoma; assay: efficacy against MD-MB-231 human mammary carcinoma xenograft; type: in vivo, Nu/Nu nude mice; settings: in comparison to a vehicle control; formulation i.p./s.c., taxol i.v.
Protocol: Briefly, 6 week old female Nu/Nu mice were kept in an autoclaved micro isolator cage, maintained under pathogen free conditions. The tumors were ascetically surgically removed and transferred to a sterile Petri dish containing RPMI-1640. The homogenate was centrifuged, pelleted, resuspended into a concentration of 10 million cells/ml and injected into the mammary fat pad. The tumors were established by day 9 after implant and treatment began. The formula was prepared in sterile saline, and administered by i.p. injection for 3 days and s.c for the next 3 days, stopping at day 15. Taxol—(24 mg/kg in 2% PEG 300, 8% cremophor CL an 80% sterile Saline) was administered i.v. intermittently up to day 19 (days 10,13,16 and 19). […] The data represents tumor volume estimation (mm3) and expressed as the mean±S.E.M., n=4, for treatment groups, with n=1 for the control. […] The data represents weight gain (g) and are expressed as the mean±S.E.M., n=4, for treatment groups, with n=1 for the control.

Cc1cc2nc3c(=O)[nH]c(=O)nc-3n(C[C@H](O)[C@H](O)[C@H](O)CO)c2cc1C [vitamin B2, 7,8-dimethyl-10-ribityl-isoalloxazine]
Vmax and Km of mitochondrial complex's I and IV [1]: augmenting the Vmax and reduction of Km | rate of mitochondrial respiration or O2 utilization through complex IV (complex IV): drastically potentiates

COC1=C(OC)C(=O)C(C/C=C(\C)CC/C=C(\C)CC/C=C(\C)CC/C=C(\C)CC/C=C(\C)CC/C=C(\C)CC/C=C(\C)CC/C=C(\C)CC/C=C(\C)CCC=C(C)C)=C(C)C1=O [CoQ10, ubiquinone (50)]
Vmax / kinetic activity of mitochondrial complex II (mitochondrial complex II): increase | Vmax / kinetic activity of mitochondrial complex II (mitochondrial complex II; listed as ubiquinone (50)): augmenting | rate of mitochondrial respiration or O2 utilization through complex IV (complex IV): did not control | rate of mitochondrial respiration or O2 utilization through complex IV (complex IV; listed as ubiquinone (50)): no positive effect | lethality to cancer cells (cancer cells): not as lethal as expected

COc1ccc(-c2cc(=O)c3c(O)cc(O[C@@H]4O[C@H](CO[C@@H]5O[C@@H](C)[C@H](O)[C@@H](O)[C@H]5O)[C@@H](O)[C@H](O)[C@H]4O)cc3o2)cc1O [diosmin]
tumoricidal potency (loss of cell viability) (N-2A neuroblastoma cells): most potent tumoricidal

O=C(O[C@@H]1Cc2c(O)cc(O)cc2O[C@@H]1c1cc(O)c(O)c(O)c1)c1cc(O)c(O)c(O)c1 [epigallocatechin gallate]
LDH inhibition (LDH enzyme kinetic profiles) (LDH Type V): LDH inhibitors

CC(C)=CCC[C@]1(C)C=Cc2c(O)c3c(c(CC=C(C)C)c2O1)O[C@]12C(=C[C@@H]4C[C@H]1C(C)(C)O[C@@]2(C/C=C(/C)C(=O)O)C4=O)C3=O [gambogic acid]
tumoricidal potency (loss of cell viability) (N-2A neuroblastoma cells): most potent tumoricidal

Cc1cc2nc3c(=O)[nH]c(=O)nc-3n(C[C@H](O)[C@H](O)[C@H](O)COP(=O)(O)O)c2cc1C [FMN, flavin mononucleotide]
Vmax and Km of mitochondrial complex's I and IV [1]: augmenting the Vmax and reduction of Km

COC1=C(OC)C(=O)C(C)=CC1=O [DMBQ]
toxicity relative to bromopyruvate [2]: > 50 × | lethality to cancer cells (cancer cells): lethal

O=c1c(O)c(-c2ccc(O)c(O)c2)oc2cc(O)cc(O)c12 [quercetin]
LDH inhibition (LDH enzyme kinetic profiles) (LDH Type V): LDH inhibitors

O=c1c(O)c(-c2ccc(O)cc2O)oc2cc(O)cc(O)c12 [2′,3,4′5,7-pentahydroxyflavone]
LDH inhibition (LDH enzyme kinetic profiles) (LDH Type V): inhibitor

Cc1cc2nc3c(=O)[nH]c(=O)nc-3n(C[C@H](O)[C@H](O)[C@H](O)COP(=O)(O)OP(=O)(O)OC[C@H]3O[C@@H](n4cnc5c(N)ncnc54)[C@H](O)[C@@H]3O)c2cc1C [FAD, flavin adenine dinucleotide]
Vmax and Km of mitochondrial complex's I and IV [1]: augmenting the Vmax and reduction of Km

O=C(O)CC(O)(CC(=O)O)C(=O)O [citric acid]
LDH inhibition (LDH enzyme kinetic profiles) (LDH Type V): LDH inhibitors

CC(=O)O[C@H]1C(=O)[C@@]2(C)[C@H]([C@H](OC(=O)c3ccccc3)[C@]3(O)C[C@H](OC(=O)[C@H](O)[C@@H](NC(=O)c4ccccc4)c4ccccc4)C(C)=C1C3(C)C)[C@]1(OC(C)=O)CO[C@@H]1C[C@@H]2O [taxol®]
tumor growth and growth latency [3]: reduced tumor growth and growth latency

C[C@H]1[C@H](C)CC[C@]2(C)CC[C@]3(C)C(=CC[C@@H]4[C@@]5(C)CC[C@@H](O)[C@](C)(C(=O)O)[C@@H]5CC[C@]43C)[C@H]12 [boswellic acid]
tumoricidal potency (loss of cell viability) (N-2A neuroblastoma cells): most potent tumoricidal
